“And” between values parts separate entries of the source, which are not always exact repeats. Equal entries are not always repeated.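 These data come from cells grown in 96-well plates and exposed to compound for 48 hours at five concentrations. The concentration for 50% growth inhibition is given as GI50. TGI is the concentration that stops growth completely.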
How the values were obtained:
Assay in all cases: NCI tumour cell line growth inhibition, 48 h
[1] = system: M14 melanoma
[2] = system: HL-60(TB) leukemia
[3] = system: 786-0 renal
[4] = system: IGROV1 ovarian
[5] = system: UO-31 renal
[6] = system: UACC-257 melanoma
[7] = system: NCI-H460 lung
[8] = system: SK-MEL-28 melanoma
[9] = system: COLO 205 colon
[10] = system: RPMI-8226 leukemia

Compound	GI50 [1]	TGI [1]	GI50 [2]	TGI [2]	GI50 [3]	TGI [3]	GI50 [4]	TGI [4]	GI50 [5]	TGI [5]	GI50 [6]	TGI [6]	GI50 [7]	TGI [7]	GI50 [8]	TGI [8]	GI50 [9]	TGI [9]	GI50 [10]	TGI [10]
O=[N+]([O-])c1ccc2c(c1)[O][Sn][O]2	23.8 µg/mL	78.2 µg/mL	36.5 µg/mL	> 150 µg/mL	139 µg/mL	> 150 µg/mL	115 µg/mL	> 150 µg/mL	125 µg/mL	> 150 µg/mL	40.5 µg/mL	> 150 µg/mL	69.5 µg/mL	> 150 µg/mL	29.4 µg/mL	> 150 µg/mL	62.5 µg/mL	> 150 µg/mL	17.8 µg/mL	> 150 µg/mL
N#C[C@@H]1C(n2ccc(N)nc2=O)O[C@H](CO)[C@H]1O (stereo not given in full)	2.97 µM	> 100 µM	29.4 µM	> 100 µM	13.2 µM	> 100 µM	> 100 µM	> 100 µM	6.18 µM	> 83.4 µM	> 93.3 µM	> 100 µM	0.693 µM	> 100 µM	64.2 µM	> 100 µM	8.79 µM	> 100 µM	> 100 µM	> 100 µM
CC[C@@]1(O)C(=O)OCc2c1cc1n(c2=O)Cc2cc3cc(N)ccc3nc2-1	0.0162 µM	0.404 µM and 0.0409 µM	0.0718 µM	1.03 µM	0.0119 µM	0.208 µM and 0.027 µM	0.056 µM	3.06 µM and 2.21 µM	0.0117 µM	0.169 µM and 0.0358 µM	0.0441 µM and 0.0423 µM	0.642 µM and 0.375 µM	0.00149 µM	0.212 µM	0.183 µM and 0.0563 µM	4.58 µM and 2.2 µM	0.0618 µM and 0.102 µM	2.86 µM and 1.26 µM	0.106 µM and 0.0994 µM	4.45 µM
C1=CC=C2NCCOCCNC3=CC=CC=CC3=NCCOCCN=C2C=C1		41.6 µM		70.5 µM		> 100 µM		> 100 µM		> 100 µM		44.6 µM		> 100 µM		> 100 µM		> 100 µM		> 100 µM
CC(C)[C@H]1C(=O)N[C@@H](CCCN=C(N)N)C(=O)NCC(=O)N[C@@H](CC(=O)O)C(=O)N[C@H](Cc2ccccc2)C(=O)N1C	> 100 µM	> 100 µM	> 100 µM	> 100 µM	5.54 µM	> 100 µM	> 62.2 µM	> 100 µM	> 73.2 µM	> 100 µM	> 27.9 µM	> 100 µM	31.6 µM	> 100 µM	31.6 µM	> 100 µM	> 100 µM	> 100 µM	> 100 µM	> 100 µM
COc1ccc(Cl)cc1Nc1nc(C(F)(F)F)ccc1C(=O)N/N=C/c1cc(OC)c(OC)c(OC)c1	1.61 µM	3.93 µM	2.21 µM	5.77 µM	1.78 µM	3.68 µM	0.346 µM	2.3 µM	1.24 µM	3.79 µM	1.65 µM	3.96 µM	2.68 µM	10.1 µM	1.83 µM	9.26 µM	2.62 µM	8.33 µM	> 100 µM	> 100 µM
O=C(OC[C@H]1O[C@@H](OC(=O)c2cc(O)c(O)c(O)c2)[C@H](OC(=O)c2cc(O)c(O)c(O)c2)[C@@H](OC(=O)c2cc(O)c(O)c(O)c2)[C@@H]1OC(=O)c1cc(O)c(O)c(O)c1)c1cc(O)c(O)c(O)c1		24.4 µM		> 100 µM		21.2 µM		> 100 µM		19.2 µM		65 µM		24.8 µM		56.7 µM		46.3 µM		> 100 µM
CN1C(=O)C(Cl)(C(Cl)(Cl)S(=O)(=O)O)C(=O)c2ccccc21 (stereo not given)		> 100 µM		> 100 µM		> 100 µM		> 100 µM		> 100 µM		> 100 µM		> 100 µM		> 100 µM		> 100 µM		> 100 µM
CN(C)C(=O)O[C@@H]1CN[C@@H](C#Cc2cc3ncnc(Nc4ccc(OCc5cccc(F)c5)c(Cl)c4)c3s2)C1	> 25 µM	> 25 µM	9.86 µM	> 22 µM	9.48 µM	> 21.7 µM	13.1 µM	> 25 µM	5.22 µM	> 20.9 µM	> 25 µM	> 25 µM	8.33 µM	> 25 µM	> 25 µM	> 25 µM	> 25 µM	> 25 µM	7.18 µM	> 25 µM
NC(=O)c1ccc(C2C3=C(CCCC3=O)OC3=C2C(=O)c2ccccc2C3=O)cc1 (stereo not given)	0.609 µM	2.03 µM	0.239 µM	0.538 µM	1.04 µM	2.33 µM	0.641 µM	2.12 µM	1.54 µM	2.91 µM	0.232 µM	1.26 µM	0.458 µM	2.05 µM	1.33 µM	2.87 µM	0.351 µM	1.41 µM	0.521 µM	2.63 µM
O=C1NC2(CN3CCC2CC3)C(=O)N1CN(Cc1ccccc1)c1ccccc1 (stereo not given)		> 100 µM		44.7 µM		> 100 µM		> 100 µM		> 100 µM		> 100 µM		> 100 µM		> 100 µM		> 100 µM		> 100 µM
c1nnc(NCNc2nncs2)s1		> 100 µM		> 100 µM		> 100 µM		> 100 µM		> 100 µM		> 100 µM		83.6 µM		> 100 µM		> 100 µM		> 100 µM
Cc1nn(-c2ccccc2)c(-c2ccccc2[N+](=O)[O-])c1CC#N		> 100 µM		> 100 µM		> 100 µM		> 100 µM		> 100 µM		> 100 µM		> 100 µM		> 100 µM		> 100 µM		> 100 µM
O=C1CCCN1CC#CCN1CCCC1	> 100 µM	> 100 µM	> 100 µM	> 100 µM	> 100 µM	> 100 µM	> 100 µM	> 100 µM	> 100 µM	> 100 µM	> 100 µM	> 100 µM	> 100 µM	> 100 µM	> 100 µM	> 100 µM	> 100 µM	> 100 µM	> 100 µM	> 100 µM
Cn1c(=O)c2c(ncn2CN2CCN(Cn3cnc4c3c(=O)n(C)c(=O)n4C)CC2)n(C)c1=O		> 100 µM		54 µM		> 100 µM		> 100 µM		> 100 µM		> 100 µM		57.8 µM		> 100 µM		> 100 µM		49.5 µM
CN=C1SC(=Nc2ccc(N(C)C)cc2)N1C		> 100 µM		> 100 µM		> 100 µM		> 100 µM		> 100 µM		> 100 µM		> 100 µM		> 100 µM		> 100 µM		> 100 µM

Reference: PubChem BioAssay (NCI)
